We go through 28 compounds from ChEMBL document CHEMBL5036378, “Discovery of 5-Aryl-2,4-diaminopyrimidine Compounds as Potent and Selective IRAK4 Inhibitors” (ACS Med Chem Lett, 2022).

For series [1], the target named is T1, Interleukin-1 receptor-associated kinase 4 (Homo sapiens, UniProt Q9NWZ3).
T1 sequence (Q9NWZ3 whole entry): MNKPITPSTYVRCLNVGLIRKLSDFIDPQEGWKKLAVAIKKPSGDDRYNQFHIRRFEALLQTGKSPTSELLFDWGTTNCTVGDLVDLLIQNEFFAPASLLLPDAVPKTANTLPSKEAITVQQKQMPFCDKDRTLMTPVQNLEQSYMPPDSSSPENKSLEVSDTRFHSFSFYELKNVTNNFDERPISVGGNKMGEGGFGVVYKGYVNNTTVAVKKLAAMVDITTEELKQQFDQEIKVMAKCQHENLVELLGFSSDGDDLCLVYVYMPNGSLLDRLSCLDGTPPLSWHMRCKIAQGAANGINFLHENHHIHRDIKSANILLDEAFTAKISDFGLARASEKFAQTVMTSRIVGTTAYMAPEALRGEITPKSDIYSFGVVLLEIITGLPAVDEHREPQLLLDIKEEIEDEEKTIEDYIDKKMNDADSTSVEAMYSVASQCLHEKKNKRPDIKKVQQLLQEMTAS
The experiment in a line: Inhibition of IRAK4 (unknown origin) in presence of MBP as substrate by ADP-Glo assay.

For series [2], the target named is T2, Mitogen-activated protein kinase kinase kinase 7 (Homo sapiens, UniProt O43318).
T2 sequence (O43318 whole entry): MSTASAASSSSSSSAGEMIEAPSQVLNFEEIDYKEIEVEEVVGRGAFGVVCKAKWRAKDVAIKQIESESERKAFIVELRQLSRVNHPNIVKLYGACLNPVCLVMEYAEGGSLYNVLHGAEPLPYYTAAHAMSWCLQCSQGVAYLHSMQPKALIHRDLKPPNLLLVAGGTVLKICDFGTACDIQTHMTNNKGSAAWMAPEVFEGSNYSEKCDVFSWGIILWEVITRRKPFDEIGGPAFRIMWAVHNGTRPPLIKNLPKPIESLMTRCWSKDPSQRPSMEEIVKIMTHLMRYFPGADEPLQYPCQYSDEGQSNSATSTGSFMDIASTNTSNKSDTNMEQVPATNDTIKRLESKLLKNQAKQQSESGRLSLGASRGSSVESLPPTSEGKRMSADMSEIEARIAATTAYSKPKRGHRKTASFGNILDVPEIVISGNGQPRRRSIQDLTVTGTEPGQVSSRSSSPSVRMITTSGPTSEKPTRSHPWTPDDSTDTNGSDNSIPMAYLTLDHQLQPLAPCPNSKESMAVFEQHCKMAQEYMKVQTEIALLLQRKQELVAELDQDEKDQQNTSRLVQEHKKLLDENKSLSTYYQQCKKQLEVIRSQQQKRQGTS
The series can be described thus: Inhibition of TAK1 (unknown origin) in presence of MBP as substrate by ADP-Glo assay.

For a further series, the system named is THP-1. The experiment in a line: Antiinflammatory activity against human THP-1 cells assessed as inhibition of LPS induced IL-23 production preincubated with compound for 1 hr followed by LPS stimulation and measured after 18 hrs by cell based ELISA method. Format: functional.
Series [3] is described as follows: Drug concentration in female BALB/c mouse plasma at 75 mg/kg, po incubated for 30 mins followed by IL-1beta administration and measured after 30 mins. The conditions noted are these: time 60 min, read-out: Drug uptake. The class given is ADME, organism-based.
Series [4] has as its system HUVEC. The series can be described thus: Antiinflammatory activity against HUVEC cells assessed as inhibition of LPS induced IL-6 production measured by ELISA method. Format: functional, cell-based. The conditions noted are these: Homo sapiens.
The test system of a further series is Mus musculus. The experiment in a line: Antiinflammatory activity in female BALB/c mouse assessed as inhibition of IL-1beta induced IL-6 levels at 75 mg/kg, po for 30 mins followed by IL-1beta administration and measured after 1.5 hrs by ELISA method. The class given is functional. The conditions noted are these: time 2 hrs.
Series [5] deals with HUVEC. The series can be described thus: Antiinflammatory activity against HUVEC cells assessed as inhibition of IL-1beta induced IL-6 production preincubated with compound for 1 hr followed by IL-1beta stimulation and measured after 12 hrs by cell based ELISA method. The class given is functional. The conditions noted are these: Homo sapiens.
A further series deals with Blood. The series can be described thus: Antiinflammatory activity against human whole blood assessed as inhibition of IL-1beta induced MIP-1beta production preincubated with compound for 1 hr followed by IL-1beta stimulation and measured after 12 hrs by cell based ELISA method. The class given is functional, tissue-based.
Series [6] in a line: Antiinflammatory activity against human monocyte derived dendritic cells assessed as inhibition of LPS induced IL-23 production preincubated with compound for 1 hr followed by LPS stimulation and measured after 18 hrs by cell based ELISA method. Format: functional.

`CN1CCN(c2cc(F)cc(Nc3ncc(-c4cccc(F)c4)c(N[C@H]4[C@@H](C(N)=O)[C@@H]5C=C[C@H]4C5)n3)c2)CC1`: the IC50 in series [1] turned out to be 18 nM; in series [2] it was 100 nM; in the series with THP-1 it was 260 nM.
As for `NC(=O)[C@@H]1[C@H](Nc2nc(Nc3ccnc(N4CCCC4)c3)ncc2-c2cccc(F)c2)[C@H]2C=C[C@@H]1C2`, the IC50 in series [1] was determined as 33 nM; in series [2], 2400 nM; in the series with THP-1, 280 nM.
As for `N#Cc1ccc(-c2cnc(Nc3cccc(C(=O)N4CCCC4)c3)nc2N[C@H]2[C@@H](C(N)=O)[C@@H]3C=C[C@H]2C3)cc1`, the IC50 in the series on THP-1 was determined as 190 nM.
On to `NC(=O)[C@@H]1[C@H](Nc2nc(Nc3cccc(C(=O)N4CCCC4)c3)ncc2-c2ccoc2)[C@H]2C=C[C@@H]1C2`, for which, in the series with THP-1, the half-inhibitory concentration (IC50) came to 40 nM.
`CN1CCN(c2ccc(Nc3ncc(-c4cccc(F)c4)c(N[C@H]4[C@@H](C(N)=O)[C@@H]5C=C[C@H]4C5)n3)cn2)CC1`: the figures for the IC50 (in [1]; in series [2]; with THP-1) were 26 nM, 280 nM and 240 nM, respectively.
With `NC(=O)[C@@H]1[C@H](Nc2nc(Nc3cccc(C(=O)N4CCCC4)c3)ncc2-c2ccccc2F)[C@H]2C=C[C@@H]1C2`, the IC50 was 11 nM in series [1] and 130 nM with THP-1.
As for `NC(=O)[C@@H]1[C@H](Nc2nc(Nc3cccc(C(=O)N4CCCC4)c3)ncc2-c2cccc(F)c2)[C@H]2C=C[C@@H]1C2`, the results for the IC50 (in series [1]; in series [2]; in the series on THP-1) were 4 nM, 24 nM and 870 nM, respectively.
Turning to `NC(=O)[C@@H]1[C@H](Nc2nc(Nc3cccc(C(=O)N4CCCC4)c3)ncc2-c2cncc(F)c2)[C@H]2C=C[C@@H]1C2`, the concentration at 1 h in series [3] was found to be 2880 ng/mL.
As for `N#Cc1cccc(-c2cnc(Nc3cccc(C(=O)N4CCCC4)c3)nc2N[C@H]2[C@@H](C(N)=O)[C@@H]3C=C[C@H]2C3)c1`, the values for the IC50 (in [2]; in the series on THP-1) were 100 nM and 280 nM, respectively.
As to `NC(=O)[C@@H]1[C@H](Nc2nc(Nc3cccc(C(=O)N4CCCC4)c3)ncc2C2CC2)[C@H]2C=C[C@@H]1C2`, the IC50 with THP-1 was 90 nM.
For the compound `NC(=O)[C@@H]1[C@H](Nc2nc(Nc3ccc(N4CCOCC4)nc3)ncc2-c2cccc(F)c2)[C@H]2C=C[C@@H]1C2`, the IC50 was determined as 25 nM in [1], 450 nM in [2] and 210 nM in the series on THP-1.
In the same order, the values of `NC(=O)[C@@H]1[C@H](Nc2nc(Nc3cccc(C(=O)N4CCCC4)c3)ncc2-c2ccncc2)[C@H]2C=C[C@@H]1C2` are 10 nM, 230 nM and 320 nM.
In the same order, the values of `NC(=O)[C@@H]1[C@H](Nc2nc(Nc3cccc(C(=O)N4CCCC4)c3)ncc2-c2ccsc2)[C@H]2C=C[C@@H]1C2` are 5 nM, 27 nM and 110 nM.
In the same order, the values of `Cc1cc(Nc2ncc(-c3cccnc3)c(N[C@H]3[C@@H](C(N)=O)[C@@H]4C=C[C@H]3C4)n2)ccc1OCCN1CCCC1` are 179 nM, 450 nM and 1100 nM.
Take `NC(=O)[C@@H]1[C@H](Nc2nc(Nc3cccc(C(=O)N4CCCC4)c3)ncc2-c2ccnc(F)c2)[C@H]2C=C[C@@H]1C2`: in series [3], the concentration at 1 h turned out to be 6820 ng/mL. In addition, the IC50 in the series with HUVEC [4] was determined as 120 nM; in the series on HUVEC [5], 110 nM; in the series with THP-1, 100 nM; in the series on Blood it was 510 nM; in series [6], 110 nM. Further, in the series with Mus musculus, the inhibition in vivo at 75 mg/kg was found to be 64%.
Regarding `NC(=O)[C@@H]1[C@H](Nc2nc(Nc3ccnc(N4CCOCC4)c3)ncc2-c2cccc(F)c2)[C@H]2C=C[C@@H]1C2`, the results for the IC50 (in series [1]; in [2]; with THP-1) were 8 nM, 160 nM and 40 nM, respectively.
For `NC(=O)[C@@H]1[C@H](Nc2nc(Nc3cccc(C(=O)N4CCCC4)c3)ncc2-c2ccc(F)cc2)[C@H]2C=C[C@@H]1C2`, in the series on THP-1, the IC50 was found to be 460 nM.
As to `NC(=O)[C@@H]1[C@H](Nc2nc(Nc3cccc(C(=O)N4CCCC4)c3)ncc2-c2ccccc2)[C@H]2C=C[C@@H]1C2`, the IC50 in [2] came out at 170 nM; in the series on THP-1, 220 nM.
As for `NC(=O)[C@@H]1[C@H](Nc2nc(Nc3ccc(C(=O)N4CCCC4)cc3)ncc2-c2cccnc2)[C@H]2C=C[C@@H]1C2`, the IC50 in [1] was 26 nM; in [2], 250 nM; in the series with THP-1 it was 230 nM.
Turning to `NC(=O)[C@@H]1[C@H](Nc2nc(Nc3ccc(OCCN4CCCC4)cc3)ncc2-c2cccnc2)[C@H]2C=C[C@@H]1C2`, the IC50 in series [1] is 103 nM; in series [2] it was 380 nM; with THP-1, 700 nM.
Take `Cc1cnc(Nc2cccc(C(=O)N3CCCC3)c2)nc1N[C@H]1[C@@H](C(N)=O)[C@@H]2C=C[C@H]1C2`: in the series with THP-1, the IC50 came to 100 nM.
Regarding `NC(=O)[C@@H]1[C@H](Nc2nc(Nc3ccc(-c4cnco4)cc3)ncc2-c2cccc(F)c2)[C@H]2C=C[C@@H]1C2`, the figures for the IC50 (in series [1]; in series [2]; in the series with THP-1) were 37 nM, 390 nM and 290 nM, respectively.
The like results for `NC(=O)[C@@H]1[C@H](Nc2nc(Nc3cccc(C(=O)N4CCOCC4)c3)ncc2-c2cccc(F)c2)[C@H]2C=C[C@@H]1C2` were, in that order, 14 nM, 94 nM and 220 nM.
With `CN1CCN(c2cc(Nc3ncc(-c4cccc(F)c4)c(N[C@H]4[C@@H](C(N)=O)[C@@H]5C=C[C@H]4C5)n3)ccn2)CC1`, the IC50 in [1] was found to be 6 nM; in series [2] it was 120 nM; in the series with THP-1, 50 nM.
The like results for `NC(=O)[C@@H]1[C@H](Nc2nc(Nc3cc(F)cc(N4CCOCC4)c3)ncc2-c2cccc(F)c2)[C@H]2C=C[C@@H]1C2` were, in that order, 12 nM, 1000 nM and 250 nM.
Regarding `NC(=O)[C@@H]1[C@H](Nc2nc(Nc3cccc(C(=O)N4CCCC4)c3)ncc2-c2cccnc2)[C@H]2C=C[C@@H]1C2`, the IC50 in the series on THP-1 was 320 nM.
Take `NC(=O)[C@@H]1[C@H](Nc2nc(Nc3cccc(-c4cnco4)c3)ncc2-c2cccc(F)c2)[C@H]2C=C[C@@H]1C2`: the IC50 in [1] stood at 25 nM; in series [2], 270 nM; in the series with THP-1, 390 nM.
In the case of `CN1CCN(C(=O)c2cccc(Nc3ncc(-c4cccc(F)c4)c(N[C@H]4[C@@H](C(N)=O)[C@@H]5C=C[C@H]4C5)n3)c2)CC1`, the results for the 50% inhibitory concentration (IC50) (in [1]; in series [2]; in the series on THP-1) were 5 nM, 48 nM and 130 nM, respectively.
